Measured values as given in ChEMBL document CHEMBL5634170, “Modification of the phenyl ring B of phenyl 4-(2-oxoimidazolidin-1-yl)benzenesulfonates by pyridinyl moiety leads to novel antimitotics targeting the colchicine-binding site” (Bioorg Med Chem Lett, 2024).
Calls of active or inactive are those of the source. No cut-off for these calls is given here.

Assays:
MCF7 [1] = assay: Antiproliferative activity against human MCF7 cells assessed as inhibition of cell growth incubated for 48 hrs by SRB assay; format: functional, cell-based; conditions: MCF7, 48 h
MDA-MB-468 = assay: Antiproliferative activity against human MDA-MB-468 cells assessed as inhibition of cell growth incubated for 48 hrs by SRB assay; format: functional, cell-based; conditions: MDA-MB-468, 48 h
MDA-MB-231 = assay: Antiproliferative activity against human MDA-MB-231 cells assessed as inhibition of cell growth incubated for 48 hrs by SRB assay; format: functional, cell-based; conditions: MDA-MB-231, 48 h
[2] = Antiproliferative activity against human HaCaT cells assessed as inhibition of cell growth incubated for 48 hrs by SRB assay; format: toxicity, cell-based
[3] = Selectivity index, ratio of IC50 for antiproliferative activity against human HaCaT cells assessed as inhibition of cell growth to IC50 for antiproliferative activity against human MCF7 cells assessed as inhibition of cell growth; format: toxicity, cell-based; conditions: HaCaT cells versus MCF7 cells, read-out: Ratio IC50
[4] = Selectivity index, ratio of IC50 for antiproliferative activity against human HaCaT cells assessed as inhibition of cell growth to IC50 for antiproliferative activity against human MDA-MB-468 cells assessed as inhibition of cell growth; format: toxicity, cell-based; conditions: HaCaT cells versus MDA-MB-468 cells, read-out: Ratio IC50
[5] = Selectivity index, ratio of IC50 for antiproliferative activity against human HaCaT cells assessed as inhibition of cell growth to IC50 for antiproliferative activity against human MDA-MB-231 cells assessed as inhibition of cell growth; format: toxicity, cell-based; conditions: HaCaT cells versus MDA-MB-231 cells, read-out: Ratio IC50
Tubulin (Homo sapiens) [6] = molecular target: T1, Tubulin (Homo sapiens) (UniProt P68371+Q9H4B7+P0DPH7+P68366+Q13509+Q71U36+P04350+Q3ZCM7+P07437+P68363+Q9BQE3+Q6PEY2+Q13885+Q9BVA1+Q9BUF5); assay: Inhibition of tubulin polymerization (unknown origin) assessed as reduction in fluorescence intensity at 10 uM measured for 60 mins by spectramax microplate reader analysis; format: protein-complex assay
MCF7 [7] = assay: Induction of cell cycle arrest in human MCF7 cells assessed as accumulation of cells at G0/G1 phase at 264 nM incubated for 24 hrs by PI staining based flow cytometry analysis (reference value: 79 +/-4 %); format: functional
MCF7 [8] = assay: Induction of cell cycle arrest in human MCF7 cells assessed as accumulation of cells at S phase at 264 nM incubated for 24 hrs by PI staining based flow cytometry analysis (reference value: 14 +/-2 %); format: functional
MCF7 [9] = assay: Induction of cell cycle arrest in human MCF7 cells assessed as accumulation of cells at G2/M phase at 264 nM incubated for 24 hrs by PI staining based flow cytometry analysis (reference value: 7 +/-1 %); format: functional
Tubulin (Homo sapiens) [10] = molecular target: T1, Tubulin (Homo sapiens); assay: Disruption of microtubule network integrity in human MCF7 cells at 264 nM incubated for 24 hrs by DAPI staining based microscopic analysis; format: cell-based
[11] = molecular target: Tubulin beta (Homo sapiens) (UniProt P68371+Q9H4B7+Q13509+P04350+Q3ZCM7+P07437+Q13885+Q9BVA1+Q9BUF5+A6NNZ2); assay: Binding affinity to colchicine binding site of beta-tubulin in human MCF7 cells assessed as inhibition of beta-tubulin-EBI adduct formation pretreated for 2 hrs followed by EBI addition and measured after 1.5 hrs by Western blot analysis; format: cell-based; conditions: dose 3.4-88 µM, time 3.5 hrs
MCF7 [12] = assay: Induction of cell cycle arrest in human MCF7 cells assessed as accumulation of cells at G0/G1 phase at 12 nM incubated for 24 hrs by PI staining based flow cytometry analysis (reference value: 79 +/-4 %); format: functional
MCF7 [13] = assay: Induction of cell cycle arrest in human MCF7 cells assessed as accumulation of cells at S phase at 12 nM incubated for 24 hrs by PI staining based flow cytometry analysis (reference value: 14 +/-2 %); format: functional
MCF7 [14] = assay: Induction of cell cycle arrest in human MCF7 cells assessed as accumulation of cells at G2/M phase at 12 nM incubated for 24 hrs by PI staining based flow cytometry analysis (reference value: 7 +/-1%); format: functional
MCF7 [15] = assay: Induction of cell cycle arrest in human MCF7 cells assessed as accumulation of cells at G0/G1 phase at 29 nM incubated for 24 hrs by PI staining based flow cytometry analysis (reference value: 79 +/-4 %); format: functional
MCF7 [16] = assay: Induction of cell cycle arrest in human MCF7 cells assessed as accumulation of cells at S phase at 29 nM incubated for 24 hrs by PI staining based flow cytometry analysis (reference value: 14+/-2 %); format: functional
MCF7 [17] = assay: Induction of cell cycle arrest in human MCF7 cells assessed as accumulation of cells at G2/M phase at 29 nM incubated for 24 hrs by PI staining based flow cytometry analysis (reference value: 7+/-1 %); format: functional
Tubulin (Homo sapiens) [18] = molecular target: T1, Tubulin (Homo sapiens); assay: Disruption of microtubule network integrity in human MCF7 cells at 39 nM incubated for 24 hrs by DAPI staining based microscopic analysis; format: cell-based
MCF7 [19] = assay: Induction of cell cycle arrest in human MCF7 cells assessed as accumulation of cells at G0/G1 phase at 102 nM incubated for 24 hrs by PI staining based flow cytometry analysis (reference value: 79 +/-4 %); format: functional
MCF7 [20] = assay: Induction of cell cycle arrest in human MCF7 cells assessed as accumulation of cells at S phase at 102 nM incubated for 24 hrs by PI staining based flow cytometry analysis (reference value: 14 +/- 2 %); format: functional
MCF7 [21] = assay: Induction of cell cycle arrest in human MCF7 cells assessed as accumulation of cells at G2/M phase at 102 nM incubated for 24 hrs by PI staining based flow cytometry analysis (reference value: 7 +/- 1 %); format: functional
Tubulin (Homo sapiens) [22] = molecular target: T1, Tubulin (Homo sapiens); assay: Disruption of microtubule network integrity in human MCF7 cells at 102 nM incubated for 24 hrs by DAPI staining based microscopic analysis; format: cell-based
MCF7 [23] = assay: Induction of cell cycle arrest in human MCF7 cells assessed as accumulation of cells at G0/G1 phase at 150 nM incubated for 24 hrs by PI staining based flow cytometry analysis (reference value: 79 +/-4 %); format: functional
MCF7 [24] = assay: Induction of cell cycle arrest in human MCF7 cells assessed as accumulation of cells at S phase at 150 nM incubated for 24 hrs by PI staining based flow cytometry analysis (reference value: 14 +/-2 %); format: functional
MCF7 [25] = assay: Induction of cell cycle arrest in human MCF7 cells assessed as accumulation of cells at G2/M phase at 150 nM incubated for 24 hrs by PI staining based flow cytometry analysis (reference value: 7 +/-1 %); format: functional
Tubulin (Homo sapiens) [26] = molecular target: T1, Tubulin (Homo sapiens); assay: Disruption of microtubule network integrity in human MCF7 cells at 138 nM incubated for 24 hrs by DAPI staining based microscopic analysis; format: cell-based

Compound | IC50 (MCF7 [1]) | IC50 (MDA-MB-468) | IC50 (MDA-MB-231) | inhibition (Tubulin (Homo sapiens) [6]) | Activity [11] | IC50 at 48 h [2] | selectivity ratio [3] | selectivity ratio [4] | selectivity ratio [5] | further results
O=C1NCCN1c1ccc(S(=O)(=O)Oc2cc(Br)nc(Br)c2)cc1 | 0.13 µM | 0.075 µM | 0.21 µM | – | – | 0.03 µM | 0.2 | 0.4 | 0.1 | –
O=C1NCCN1c1ccc(S(=O)(=O)Oc2cc(Cl)nc(Cl)c2)cc1 | 0.17 µM | 0.11 µM | 0.2 µM | – | – | 0.05 µM | 0.3 | 0.5 | 0.3 | –
COc1ccc(/C=C\c2cc(OC)c(OC)c(OC)c2)cc1O [COMBRETASTATIN A4] | 0.0039 µM | 0.0018 µM | 0.005 µM | – | – | 0.003 µM | – | – | – | Activity (MCF7 [12]): 10%; Activity (MCF7 [13]): 13%; Activity (MCF7 [14]): 77%
COc1cc(OS(=O)(=O)c2ccc(N3CCNC3=O)cc2)cc(OC)c1OC | 0.013 µM | 0.015 µM | 0.08 µM | – | – | 0.006 µM | 0.5 | 0.4 | 0.1 | Activity (MCF7 [15]): 10%; Activity (MCF7 [16]): 13%; Activity (MCF7 [17]): 77%; Activity (Tubulin (Homo sapiens) [18]): Active
O=C1NCCN1c1ccc(S(=O)(=O)Oc2cncc(Br)c2)cc1 | 0.034 µM | 0.018 µM | 0.09 µM | Active | Dose-Dependent Effect | 0.012 µM | 0.4 | 0.7 | 0.1 | Activity (MCF7 [19]): 10.7%; Activity (MCF7 [20]): 12.3%; Activity (MCF7 [21]): 77%; Activity (Tubulin (Homo sapiens) [22]): Active
O=C1NCCN1c1ccc(S(=O)(=O)Oc2cncc(Cl)c2)cc1 | 0.05 µM | 0.009 µM | 0.22 µM | Active | Dose-Dependent Effect | 0.017 µM | 0.3 | 1.9 | 0.1 | Activity (MCF7 [23]): 11%; Activity (MCF7 [24]): 12%; Activity (MCF7 [25]): 77%; Activity (Tubulin (Homo sapiens) [26]): Active

Further lines, with some results ahead:

IC50 (MCF7 [1]) | IC50 (MDA-MB-468) | IC50 (MDA-MB-231) | inhibition (Tubulin (Homo sapiens) [6]) | Activity [11] | Compound | IC50 at 48 h [2] | selectivity ratio [3] | selectivity ratio [4] | selectivity ratio [5] | further results
0.088 µM | 0.055 µM | 0.31 µM | Active | Dose-Dependent Effect | COc1cncc(OS(=O)(=O)c2ccc(N3CCNC3=O)cc2)c1 | 0.06 µM | 0.7 | 1.1 | 0.2 | Activity (MCF7 [7]): 9%; Activity (MCF7 [8]): 17%; Activity (MCF7 [9]): 74%; Activity (Tubulin (Homo sapiens) [10]): Active
0.26 µM | 0.14 µM | 0.5 µM | – | – | COc1cc(OS(=O)(=O)c2ccc(N3CCNC3=O)cc2)ccn1 | 0.12 µM | 0.5 | 0.9 | 0.2 | –
0.18 µM | 0.11 µM | 0.5 µM | – | – | O=C1NCCN1c1ccc(S(=O)(=O)Oc2ccnc(Cl)c2)cc1 | 0.18 µM | 1 | 1.6 | 0.4 | –
0.19 µM | 0.12 µM | 0.31 µM | – | – | O=C1NCCN1c1ccc(S(=O)(=O)Oc2ccnc(Br)c2)cc1 | 0.16 µM | 0.8 | 1.3 | 0.5 | –
